Among the data in ChEMBL document CHEMBL1144533, “Synthesis and evaluation of 2-{[2-(4-hydroxyphenyl)-ethyl]amino}pyrimidine-5-carboxamide derivatives as novel STAT6 inhibitors” (Bioorg Med Chem, 2007) are IC50, Activity and inhibition values, retold here.

A word on the IC50: it is the concentration that gives 50% inhibition. Broadly, the inhibition is the drop in the measured response relative to a control, in per cent. High values mean a strong effect, low ones a weak effect.

Calls of active or inactive are those of the source. No cut-off for these calls is given here.

The target in one assay is T1, Signal transducer and activator of transcription 6 (Homo sapiens, UniProt P42226).
T1 sequence (P42226 whole entry): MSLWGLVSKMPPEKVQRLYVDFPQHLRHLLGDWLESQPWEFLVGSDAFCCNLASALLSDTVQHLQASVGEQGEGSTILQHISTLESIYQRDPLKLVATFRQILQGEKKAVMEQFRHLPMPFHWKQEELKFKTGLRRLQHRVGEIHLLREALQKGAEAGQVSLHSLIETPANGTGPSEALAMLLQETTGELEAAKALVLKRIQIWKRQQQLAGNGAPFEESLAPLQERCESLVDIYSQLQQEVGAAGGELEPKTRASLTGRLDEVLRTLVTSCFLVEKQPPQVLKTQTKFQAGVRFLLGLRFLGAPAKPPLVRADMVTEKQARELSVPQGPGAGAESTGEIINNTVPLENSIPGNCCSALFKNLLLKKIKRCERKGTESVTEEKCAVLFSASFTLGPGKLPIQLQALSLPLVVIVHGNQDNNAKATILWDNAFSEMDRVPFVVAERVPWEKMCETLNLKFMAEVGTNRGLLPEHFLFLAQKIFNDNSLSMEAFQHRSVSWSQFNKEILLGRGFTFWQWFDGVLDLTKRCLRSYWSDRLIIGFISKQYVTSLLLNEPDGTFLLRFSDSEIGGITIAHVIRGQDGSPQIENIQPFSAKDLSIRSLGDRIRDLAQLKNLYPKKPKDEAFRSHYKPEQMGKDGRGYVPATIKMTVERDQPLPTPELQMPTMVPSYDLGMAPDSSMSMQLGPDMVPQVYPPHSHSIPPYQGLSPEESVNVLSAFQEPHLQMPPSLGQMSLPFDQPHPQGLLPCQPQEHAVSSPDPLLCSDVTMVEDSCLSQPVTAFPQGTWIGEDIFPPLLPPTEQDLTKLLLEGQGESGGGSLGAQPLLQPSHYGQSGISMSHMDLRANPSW
The experiment in a line: Inhibition of STAT6 in human IL4-stimulated FW4 cells.
Conditions: not given
`Cc1cccc(Nc2nc(NCCc3ccc(O)c(Br)c3)ncc2C(N)=O)c1`: half-maximal inhibition (IC50) required 83 nM.

In turn, `NC(=O)c1cnc(NCCc2ccc(O)cc2)nc1NCc1ccccc1` gave a concentration for half-maximal inhibition (IC50) of 88 nM.

`Cc1cccc(Nc2nc(NCCc3ccc(O)c(F)c3)ncc2C(N)=O)c1` registered an IC50 of 64 nM.

Consider `CNC(=O)c1cnc(NCCc2ccc(O)cc2)nc1Nc1cccc(C)c1`, for which the IC50 worked out at 170 nM.

For the molecule `CCNC(=O)c1cnc(NCCc2ccc(O)cc2)nc1Nc1cccc(C)c1`, the IC50 is 380 nM.

Molecule `Cc1cccc(Nc2nc(NCCc3ccc(O)cc3)ncc2C(=O)NC(C)C)c1` gave an IC50 of 1100 nM.

`NC(=O)c1cnc(NCCc2ccc(O)cc2)nc1Nc1ccccc1`: the IC50 is 410 nM.

Turning to `Cc1cccc(Nc2nc(NCCc3ccc(O)cc3)ncc2C(N)=O)c1`, the IC50 amounted to 190 nM.

For `CNC(=O)c1cnc(NCCc2ccc(O)c(Cl)c2)nc1NCc1ccccc1`, the half-inhibitory concentration (IC50) came out at 30 nM.

On to `COc1cc(CCNc2ncc(C(N)=O)c(Nc3cccc(C)c3)n2)ccc1O`, for which the 50% inhibitory concentration (IC50) stood at 660 nM.

The molecule `NC(=O)c1cnc(NCCc2ccc(O)c(Cl)c2)nc1NCc1ccccc1` registered a half-maximal inhibitory concentration (IC50) of 21 nM.

On to `Cc1cccc(Nc2nc(NCCc3cccc(O)c3)ncc2C(N)=O)c1`, for which the concentration for half-maximal inhibition (IC50) is 3000 nM.

Molecule `Cc1cccc(Nc2nc(NCCc3ccc(O)cc3)ncc2C(=O)N(C)C)c1` gave an IC50 of 8200 nM.

`Cc1cccc(Nc2nc(NCCc3ccc(O)c(Cl)c3)ncc2C(N)=O)c1` returned an IC50 of 45 nM.

For the molecule `NC(=O)c1cnc(NCCc2ccc(O)cc2)nc1NC1CCCCC1`, the IC50 is 100 nM.

Molecule `Cc1cccc(Nc2nc(NCCc3ccc(O)c(C)c3)ncc2C(N)=O)c1` displayed an IC50 of 130 nM.

The next assay has as its system T-cell. Description: Effect on differentiation of C57BL/6 mouse T cells assessed as inhibition of IL12-induced TFN-gamma production. Format: functional, cell-based.
Conditions: not given
With `Cc1cccc(Nc2nc(NCCc3ccc(O)cc3)ncc2C(N)=O)c1`, the result was inactive.

With `NC(=O)c1cnc(NCCc2ccc(O)c(Cl)c2)nc1NCc1ccccc1`, the result was inactive.

The target in a further assay is T2, Signal transducer and activator of transcription 6 (Homo sapiens) (UniProt P42226).
T2 sequence (whole entry): T1 sequence (P42226 whole entry)
The experiment in a line: Inhibition of STAT6 in human IL4-stimulated FW4 cells at 10 uM.
Conditions: not given
`Cc1cccc(Nc2nc(NCc3ccc(O)cc3)ncc2C(N)=O)c1` showed an inhibition of 19%.

Consider `Cc1cccc(Nc2nc(NCCc3ccccc3)ncc2C(N)=O)c1`, for which the inhibition is 16%.

On to `Cc1cccc(Nc2nc(NCCc3ccccc3O)ncc2C(N)=O)c1`, for which the inhibition was 15%.

Regarding `Cc1cccc(Nc2nc(NCCCc3ccc(O)cc3)ncc2C(N)=O)c1`, the inhibition worked out at 23%.

`Cc1cccc(Nc2nc(CCCc3ccc(O)cc3)ncc2C(N)=O)c1` registered an inhibition of 32%.

`COc1ccc(CCNc2ncc(C(N)=O)c(Nc3cccc(C)c3)n2)cc1` displayed an inhibition of 49%.

The next assay relates to T-cell. Description: Effect on differentiation of C57BL/6 mouse T cells assessed as inhibition of IL4 production. In kind it is functional, cell-based. To be noted: C57BL/6, T-cell.
For `Cc1cccc(Nc2nc(NCCc3ccc(O)cc3)ncc2C(N)=O)c1`, the IC50 worked out at 14 nM.

Regarding `NC(=O)c1cnc(NCCc2ccc(O)c(Cl)c2)nc1NCc1ccccc1`, the half-maximal inhibitory concentration (IC50) is 2.3 nM.
